This note sets out measurements from US20110269811A1, “INHIBITORS OF SEMICARBAZIDE-SENSITIVE AMINE OXIDASE (SSAO) AND VAP-1 MEDIATED ADHESION USEFUL FOR TREATMENT AND PREVENTION OF DISEASES” (priority 2006, published 2011).

Assay [1] deals with T1, Human SSAO (Homo sapiens, UniProt Q16853).
T1 construct: rat lung or human umbilical cord homogenates were prepared by chopping the freshly removed tissue; from tissue; host or cells: human umbilical cord homogenate (25,000 g supernatant)
T1 sequence (Q16853 1-763): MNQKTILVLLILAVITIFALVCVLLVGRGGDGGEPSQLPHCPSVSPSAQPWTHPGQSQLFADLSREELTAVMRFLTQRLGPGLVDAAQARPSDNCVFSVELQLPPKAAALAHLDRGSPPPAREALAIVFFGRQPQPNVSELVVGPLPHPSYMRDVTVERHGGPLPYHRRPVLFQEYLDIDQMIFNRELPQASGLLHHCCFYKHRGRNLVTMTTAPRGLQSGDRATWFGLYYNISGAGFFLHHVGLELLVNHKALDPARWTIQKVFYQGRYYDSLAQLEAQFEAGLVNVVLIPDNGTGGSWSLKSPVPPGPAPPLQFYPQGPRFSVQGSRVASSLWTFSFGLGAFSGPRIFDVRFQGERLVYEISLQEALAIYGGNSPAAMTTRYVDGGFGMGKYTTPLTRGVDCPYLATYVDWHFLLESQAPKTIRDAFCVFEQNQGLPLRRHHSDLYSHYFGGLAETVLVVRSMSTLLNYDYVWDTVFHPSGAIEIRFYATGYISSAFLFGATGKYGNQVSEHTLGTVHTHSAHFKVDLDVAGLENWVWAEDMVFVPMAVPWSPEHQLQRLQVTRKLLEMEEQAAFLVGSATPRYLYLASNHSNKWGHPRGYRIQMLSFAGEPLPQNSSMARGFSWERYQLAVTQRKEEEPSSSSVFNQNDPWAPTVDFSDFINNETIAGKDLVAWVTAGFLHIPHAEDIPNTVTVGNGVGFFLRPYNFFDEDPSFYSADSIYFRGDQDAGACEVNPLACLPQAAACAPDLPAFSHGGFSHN
Nature of the assay: In vitro inhibition of SSAO activity, human umbilical cord homogenate, 14C-benzylamine. The format is biochemical. On the procedure:
SSAO activity was measured as described (Lizcano J M. Et al. (1998) Biochem J. 331:69). Briefly, rat lung or human umbilical cord homogenates were prepared by chopping the freshly removed tissue into small pieces and washing them thoroughly in PBS. The tissue was then homogenized 1:10 (w/v) for lung or 1:5 (w/v) for umbilical cord, in 10 mM potassium phosphate buffer (pH 7.8). Homogenates were then centrifuged at 1000 g at 4° C. for 10 min (lung) or 25,000 g for 30 min (umbilical cord); the supernatants were kept frozen until ready to use. Lung or umbilical cord homogenate was preincubated with clorgyline and pargyline at 1 μM to inhibit MAO-A and -B activity, respectively, and SSAO inhibitors were generally present at 1 nM-10 μM. The reaction was initiated by addition of 20 μM ^14C— benzylamine as substrate. The reaction was carried out at 37° C. in a final volume of 400 μL of 100 mM potassium phosphate buffer (pH 7.2) and stopped with 100 μl of 2M citric acid. Radioactively labeled products were extracted into toluene/ethyl acetate (1:1, v/v) containing 0.6% (w/v) 2,5-diphenyloxazole (PPO) before liquid scintillation counting.

The subject of assay [2] is carrageenan-induced paw edema. Nature of the assay: Carrageenan-induced rat paw edema. The format is in vivo, Sprague Dawley rats. The note with it: for paw swelling: 50 mg/kg orally 60 min prior to carrageenan. The text has this: Carrageenan-induced paw edema has been extensively used in the evaluation of anti-inflammatory effects of various therapeutic agents and is a useful experimental system for assessing the efficacy of compounds to alleviate acute inflammation (Whiteley P E and Dalrymple S A, 1998. Models of inflammation: carrageenan-induced paw edema in the rat, in Current Protocols in Pharmacology. Enna S J, Williams M, Ferkany J W, Kenaki T, Porsolt R E and Sullivan J P, eds., pp 5.4.1-5.4.3, John Wiley & Sons, New York). The full development of the edema is neutrophil-dependent (Salvemini D. et al. (1996) Br. J. Pharmacol. 118: 829).
Female Sprague Dawley rats were used in groups of 8-12 and compounds of the invention were administered orally at up to 50 mg/kg 60 min prior to carrageenan exposure. The control group was administered orally an equal volume of vehicle (PBS). Edema in the paws was induced as previously described by injecting 50 μL of a 0.5% solution of carrageenan (Type IV Lambda, Sigma) in saline with a 27-G needle s.c. in the right foot pad. (See Whiteley P. E. and Dalrymple S. A. (1998), Models of inflammation: carrageenan-induced paw edema in the rat, in Current Protocols in Pharmacology, Enna S J, Williams M, Ferkany J W, Kenaki T, Porsolt R E and Sullivan J P, eds., pp 5.4.1-5.4.3, John Wiley & Sons, New York) The size of the tested foot of each animal was measured volumetrically with a plethysmometer immediately after injection of carrageenan solution and at various times up to 360 min after carrageenan induction.
Results of experiments with the compounds II-1-E, I-1-Z, and I-2-Z are shown in FIG. 1, FIG. 5, and FIG. 6, respectively.
Using the same procedure discussed above, the size of the foot of each animal was measured volumetrically before induction of edema, and at 1.5, 3, 4.5 and 6 h after the carrageenan injection. The absolute decreases in paw swelling at 6 h with 1, 10 and 50 mg/kg were 5±11%, 20±9% and 32±6% respectively. Statistical analyses were performed with repeated measures ANOVA followed by Dunnett's test for multiple comparisons.
Paw edema was induced in groups of eight Sprague Dawley rats by injecting 50 μL of a 0.375% solution of carrageenan X in saline, subcutaneously in the foot. After one hour animals were orally dosed once with PBS, compound I-1-Z at 50 mg/kg or with indomethacin at 3 mg/kg. The size of the paws were measured before induction of edema (baseline), and at 1.5, 3, 4.5 and 6 h after carrageenan injection. […] Statistical analyses were performed with repeated measures ANOVA followed by Dunnett's test for multiple comparisons.
Groups of eight Sprague Dawley rats were orally administered PBS, or 0.01, 0.1 or 1 mg/kg of compound I-1-Z. One hour later paw edema was induced in all animals by injecting 50 μL of a 0.5% solution of carrageenan X in saline, subcutaneously into the footpad. The size of the foot of each animal was measured volumetrically before induction of edema, and at 1.5, 3, 4.5 and 6 h after the carrageenan injection. The absolute decreases in paw swelling at 6 h with 0.1 and 1 mg/kg were 34±8 and 29±8% respectively. Statistical analyses were performed with repeated measures ANOVA followed by Dunnett's test for multiple comparisons.
In general terms: The carrageenan paw model is a standard test of acute inflammation.

Where [3] appears, read: human umbilical cord homogenate, read-out: Human SSAO IC50.

Like-named read-outs stand apart in the source and are kept apart here.

In the case of `COc1ccc(C/C(=C/F)CN)cc1.Cl` [Compound I-1-Z, (Z)-3-Fluoro-2-(4-methoxybenzyl)-allylamine hydrochloride], in assay [1] (as restated in Example 46, read-out: IC50 for human SSAO), the 50% inhibitory concentration (IC50) came out at 0.018 µM. The “absolute decrease in paw swelling at 6 h” value in assay [2] (0.1 mg/kg orally one hour before carrageenan, low doses, FIG. 13) stood at 34±8%; in assay [2] (1 mg/kg orally one hour before carrageenan, low doses, FIG. 13), 29±8%; in assay [2] (1 mg/kg, dose response, FIG. 7) it was 5±11%; in assay [2] (10 mg/kg, dose response, FIG. 7), 20±9%; in assay [2] (50 mg/kg, dose response, FIG. 7) it was 32±6%. For the same molecule, the paw swelling result in assay [2] (between 2-6 h) is on record as “clearly reduced the paw swelling”. Besides, the “inhibition of paw edema at 6 h” value in assay [2] (therapeutic dosing: 50 mg/kg orally one hour after 0.375% carrageenan, FIG. 8) was 50±4%.

With `CCOc1ccc(C/C(=C/F)CN)cc1.Cl` [Compound I-2-Z, (Z)-3-Fluoro-2-(4-ethoxybenzyl)-allylamine hydrochloride], the IC50 in assay [1] (setting [3]) came out at 0.01 µM. Also, the paw swelling result in assay [2] (between 3-6 h) was “clearly reduced the paw swelling”.

For the molecule `NC/C(F)=C\Cc1cc(F)cc(C(F)(F)F)c1` [II-1-E, (E)-2-Fluoro-4-(3-fluoro-5-trifluoromethylphenyl)-but-2-enylamine], in assay [1] (setting [3]), the half-maximal inhibitory concentration (IC50) turned out to be 0.036 µM. Also, the paw swelling result in assay [2] (between 2-6 h) is “clearly reduced the paw swelling”.

In general, IC50 refers to the midpoint of a concentration-inhibition curve.
